# In PMC4132841 (Neuron, 2012):
# “And” between values parts separate entries of the source, which are not always exact repeats. Identical values can stand only once. Like-named read-outs stand apart in the source and are kept apart here.
# Legend:
# [1] = target: GluK3 subunits deleted of their ATD (Rattus norvegicus, UniProt P42264); assay: Whole-cell glutamate currents of ATD-deleted receptor; type: cell-based; conditions: 100 μM zinc; 10 mM glutamate, 100 ms; n = 5
# GluK2b and GluK3(D730A) = GluK2b and GluK3(D730A) (Rattus norvegicus, UniProt P42260+P42264, D761A); assay: Glutamate currents of heteromeric mutant receptors, 1 μM UBP310 present; type: cell-based; conditions: 100 μM zinc, 10 mM glutamate
# GluK3 [2] = target: T1, GluK3 (Rattus norvegicus, UniProt P42264); type: cell-based
# GluK1-GluK2 = conditions: read-out: IC50 of zinc inhibition; ref Mott et al., 2008; cited from earlier work
# GluK2 [3] = target: T2, GluK2 (Rattus norvegicus, UniProt P42260); type: cell-based; conditions: 10 mM glutamate
# GluK3(D730A) = GluK3(D730A) (Rattus norvegicus, UniProt P42264, D761A); assay: Glutamate currents of point mutant, outside-out patches; type: cell-based; conditions: 100 μM zinc; 10 mM glutamate; n = 6
# [4] = target: GluK2 receptors where the ATD was excised (Rattus norvegicus, UniProt P42260); assay: Whole-cell glutamate currents of ATD-deleted receptor; type: cell-based; conditions: 100 μM zinc; 10 mM glutamate, 100 ms; n = 4
# GluK3(H492A) = GluK3(H492A) (Rattus norvegicus, UniProt P42264, H523A); assay: Glutamate currents of point mutant; type: cell-based; conditions: 100 μM zinc; 10 mM glutamate
# GluK3(D759G) = GluK3(D759G) (Rattus norvegicus, UniProt P42264, D790G); assay: Glutamate currents of point mutant, outside-out patches; type: cell-based; conditions: 100 μM zinc; 10 mM glutamate; n = 5
# GluK2/K3S2 = assay: Whole-cell glutamate currents of S2 chimera; type: cell-based, rat; conditions: 100 μM zinc; 10 mM glutamate, 100 ms; n = 5
# GluK3(ERLK) = GluK3(ERLK) (Rattus norvegicus, UniProt P42264, I781L/K527E/K698R/Q785K); assay: Glutamate currents of desensitization mutant GluK3; type: cell-based; conditions: 100 μM zinc
# [5] = tested on: transmembrane and intracellular segments of GluK3 and the extracellular domain of GluK2; assay: Whole-cell glutamate currents of chimeric receptor; type: cell-based, rat; conditions: 100 μM zinc; 10 mM glutamate, 100 ms; n = 4
# GluK3 [6] = target: T1, GluK3; type: cell-based; conditions: for effect of zinc on GluK3 currents: 100 μM zinc
# GluK3(H762A) = GluK3(H762A) (Rattus norvegicus, UniProt P42264, H793A); assay: Glutamate currents of point mutant, outside-out patches; type: cell-based; conditions: 100 μM zinc; 10 mM glutamate; n = 5
# GluN1/GluN2A receptors = conditions: ref Paoletti et al., 1997; cited from earlier work
# GluK3(H492C, L753C) = GluK3(H492C, L753C) (Rattus norvegicus, UniProt P42264, H523C/L784C); assay: Glutamate currents of desensitization mutant GluK3; type: cell-based; conditions: 100 μM zinc; 10 mM glutamate, 100 ms
# GluN1/GluN2B = conditions: ref Paoletti et al., 1997; cited from earlier work
# GluK2 [7] = target: T2, GluK2; type: cell-based; conditions: 100 μM zinc; control 3.4 ± 0.1 ms; n = 5; p = 0.20
# [8] = tested on: KARs containing GluK4 or GluK5 subunits; conditions: read-out: IC50 of zinc inhibition; ref Mott et al., 2008; cited from earlier work
# GluK3(H492Y) = GluK3(H492Y) (Rattus norvegicus, UniProt P42264, H523Y); assay: Glutamate currents of point mutant; type: cell-based; conditions: 100 μM zinc; 10 mM glutamate
# GluK2(Y490H) = GluK2(Y490H) (Rattus norvegicus, UniProt P42260, Y521H); assay: Glutamate currents of point mutant; type: cell-based; conditions: 100 μM zinc; 10 mM glutamate
# [9] = tested on: extracellular domain of GluK3 and the transmembrane and intracellular segments of GluK2; assay: Whole-cell glutamate currents of chimeric receptor; type: cell-based, rat; conditions: 100 μM zinc; 10 mM glutamate, 100 ms; n = 5
# [10] = target: heteromeric GluK2/GluK3 receptors (Rattus norvegicus, UniProt P42260+P42264); assay: Glutamate currents of heteromeric GluK2b; type: cell-based
# GluK2b(D729A) and GluK3 = GluK2b(D729A) and GluK3 (Rattus norvegicus, UniProt P42260+P42264, D760A); assay: Glutamate currents of heteromeric mutant receptors; type: cell-based; conditions: 10 mM glutamate
# GluK3(D730N) = GluK3(D730N) (Rattus norvegicus, UniProt P42264, D761N); assay: Glutamate currents of point mutant, outside-out patches; type: cell-based; conditions: 100 μM zinc; 10 mM glutamate
# GluK2(G758D) = GluK2(G758D) (Rattus norvegicus, UniProt P42260, G789D); assay: as above; type: cell-based; conditions: 100 μM zinc; 10 mM glutamate; n = 6
# GluK3/K2S2 = GluK3/K2S2 (Rattus norvegicus, UniProt P42260+P42264, A594P/A717V/A732S/D593N/D790G/E602D/E705D/F704Y/G600D/I638V/I746V/I767V/I794M/I818V/I844L/INS713R/K688E/K714R/K820N/L736F/L837F/M618V/N721S/N810S/P715Q/S620A/S803N/T729V/V569I/Y745F); assay: Whole-cell glutamate currents of S2 chimera; type: cell-based; conditions: 100 μM zinc; 10 mM glutamate, 100 ms; n = 5
# GluK2b(Q) and GluK3 = GluK2b(Q) and GluK3 (Rattus norvegicus, UniProt P42264); assay: Glutamate-activated currents in HEK293 cells cotransfected with GluK2b; type: cell-based; conditions: 1 μM UBP310; n = 6
# [11] = combined potentiation/inhibition Hill equations
# T1 sequence (P42264 32-919): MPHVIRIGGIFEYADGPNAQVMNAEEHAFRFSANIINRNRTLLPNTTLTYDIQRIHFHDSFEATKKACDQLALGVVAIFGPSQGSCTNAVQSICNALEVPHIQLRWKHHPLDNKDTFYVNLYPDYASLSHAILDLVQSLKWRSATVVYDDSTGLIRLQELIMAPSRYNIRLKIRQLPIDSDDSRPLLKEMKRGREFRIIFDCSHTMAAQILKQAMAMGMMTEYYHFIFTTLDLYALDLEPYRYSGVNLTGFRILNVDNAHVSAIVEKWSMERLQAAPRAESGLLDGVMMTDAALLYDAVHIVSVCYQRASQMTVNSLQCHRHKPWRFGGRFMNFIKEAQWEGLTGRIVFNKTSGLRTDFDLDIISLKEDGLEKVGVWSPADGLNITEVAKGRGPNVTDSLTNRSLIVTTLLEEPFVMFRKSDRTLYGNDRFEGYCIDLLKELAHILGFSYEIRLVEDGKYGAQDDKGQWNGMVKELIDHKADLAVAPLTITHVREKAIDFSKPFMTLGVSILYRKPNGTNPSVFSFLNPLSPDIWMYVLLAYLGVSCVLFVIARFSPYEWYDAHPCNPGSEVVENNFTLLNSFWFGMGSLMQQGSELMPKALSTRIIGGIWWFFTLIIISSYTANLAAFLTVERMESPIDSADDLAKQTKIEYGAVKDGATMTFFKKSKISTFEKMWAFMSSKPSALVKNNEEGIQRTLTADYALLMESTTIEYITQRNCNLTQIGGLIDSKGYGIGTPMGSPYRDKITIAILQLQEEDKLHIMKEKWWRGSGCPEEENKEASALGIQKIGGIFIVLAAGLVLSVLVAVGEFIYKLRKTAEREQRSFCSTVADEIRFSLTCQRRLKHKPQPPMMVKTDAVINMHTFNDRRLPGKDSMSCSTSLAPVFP
# Chain of GluK3(ERLK) (P42264 32-919 K527E/K698R/I781L/Q785K): as the sequence (P42264 32-919) above, with K496E, K667R, I750L, Q754K counted along it
# Chain of GluK3(D730N) (P42264 32-919 D761N): as the sequence (P42264 32-919) above, with D730N counted along it
# Chain of GluK3(D759G) (P42264 32-919 D790G): as the sequence (P42264 32-919) above, with D759G counted along it
# Chain of GluK2b(Q) and GluK3 (P42264 32-919): as the sequence (P42264 32-919) above
# Chain of GluK3(D730A) (P42264 32-919 D761A): as the sequence (P42264 32-919) above, with D730A counted along it
# Chain of GluK3 subunits deleted of their ATD (P42264 376-919, stated change not applied): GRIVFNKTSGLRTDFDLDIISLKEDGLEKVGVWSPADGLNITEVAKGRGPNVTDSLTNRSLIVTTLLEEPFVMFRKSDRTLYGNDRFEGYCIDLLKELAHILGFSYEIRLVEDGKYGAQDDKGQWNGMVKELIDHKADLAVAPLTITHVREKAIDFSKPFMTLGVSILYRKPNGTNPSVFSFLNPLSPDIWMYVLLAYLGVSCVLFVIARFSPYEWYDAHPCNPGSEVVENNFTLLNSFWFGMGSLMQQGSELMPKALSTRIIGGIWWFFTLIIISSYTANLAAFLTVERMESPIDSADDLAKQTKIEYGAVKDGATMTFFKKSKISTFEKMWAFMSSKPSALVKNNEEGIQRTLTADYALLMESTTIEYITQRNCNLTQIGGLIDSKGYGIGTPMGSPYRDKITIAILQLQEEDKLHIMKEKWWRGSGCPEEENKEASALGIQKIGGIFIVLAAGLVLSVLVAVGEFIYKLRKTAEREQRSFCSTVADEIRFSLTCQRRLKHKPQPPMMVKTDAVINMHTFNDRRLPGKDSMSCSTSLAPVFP
# Chain of GluK3(H492Y) (P42264 32-919 H523Y): as the sequence (P42264 32-919) above, with H492Y counted along it
# Chain of GluK3(H492A) (P42264 32-919 H523A): as the sequence (P42264 32-919) above, with H492A counted along it
# Chain of GluK3(H762A) (P42264 32-919 H793A): as the sequence (P42264 32-919) above, with H762A counted along it
# Chain of GluK3(H492C, L753C) (P42264 32-919 H523C/L784C): as the sequence (P42264 32-919) above, with H492C, L753C counted along it
compound,measurement,setting,value
"[Cl-].[Cl-].[Zn+2] [zinc, ZnCl2]","current with zinc (potentiation), %",[1],186% ± 13%
same,effect of zinc on glutamate currents,GluK2b and GluK3(D730A),potentiation
same,τdes (current decay) with zinc,"GluK3 [2]; 100 μM zinc, 10 mM glutamate, 100 ms, control 5.0 ± 0.2 ms, n = 8",9.8 ± 0.4 ms
same,time for half-recovery from desensitization with zinc,"GluK3 [2]; 100 μM zinc, absence of zinc 902 ± 1.1 ms, n = 5",460 ± 1.2 ms
same,deactivation kinetics with zinc,"GluK3 [2]; 1 ms pulses of 10 mM glutamate, control 1.5 ± 0.05 ms, n = 4",2.3 ± 0.1 ms
same,"current amplitude with zinc, % of control amplitude","GluK3 [2]; 1 ms pulses of 10 mM glutamate, n = 4",191% ± 22%
same,IC50,GluK1-GluK2,~70 µM
same,Hill coefficient (nH) of zinc inhibition of GluK2 currents,GluK2 [3],1.1 and 1.1 ± 0.1
same,"current amplitude with zinc, % of control amplitude",GluK3(D730A),33% ± 2%
same,"current with zinc (inhibition), %",[4],44% ± 11%
same,effect of zinc on glutamate currents,GluK3(H492A),still potentiated
same,"current with zinc (inhibited), %",GluK3(D759G),32% ± 9%
same,"current with zinc (facilitated), %",GluK2/K3S2,197% ± 9%
same,effect of zinc on desensitization rate,GluK3(ERLK),no change
same,effect of zinc on glutamate currents,"GluK3(ERLK); 10 mM glutamate, 100 ms",inhibited rather than potentiated
same,"current with zinc (inhibited), %",[5],40% ± 8%
same,"current amplitude with zinc, % of control amplitude","GluK3 [6]; 100 μM zinc preapplied, 10 mM glutamate, 100 ms, whole-cell, n = 17",193% ± 38%
same,effect of zinc on GluK3 currents,GluK3 [6]; pH 6.8,inhibited
same,effect of zinc on GluK3 currents,GluK3 [6]; pH 8.3,potentiated
same,zinc concentrations that clearly inhibit currents,GluK3 [6]; WT GluK3 receptors,above 300 μM
same,maximal potentiation of GluK3 currents by zinc,GluK3 [6]; [11],475% ± 47%
same,nH of zinc potentiation of GluK3 currents,GluK3 [6]; [11],1.82 ± 0.95
same,zinc concentrations that potentiate glutamate currents,GluK3 [6]; homomeric and heteromeric KARs containing GluK3,10 to 100 µM
same,effect of zinc on GluK3-mediated currents,"GluK3 [6]; simultaneous application of zinc and glutamate, data not shown",does not potentiate
same,"peak amplitude with zinc, %",GluK3(H762A),45% ± 6%
same,affinity of zinc inhibition of NMDAR function,GluN1/GluN2A receptors,low nanomolar
same,effect of zinc on glutamate currents,"GluK3(H492C, L753C)",inhibited
same,affinity of zinc inhibition of NMDAR function,GluN1/GluN2B,low micromolar
same,τdes (current decay) with zinc,GluK2 [7],3.7 ± 0.1 ms
same,IC50,[8],1 to 2 µM
same,effect of zinc on glutamate currents,GluK3(H492Y),still potentiated
same,effect of zinc on glutamate currents,GluK2(Y490H),inhibited
same,"current amplitude with zinc, % of control amplitude",[9],175% ± 9%
same,"UBP310-resistant current with zinc, % of control","[10]; 100 μM zinc, 10 mM glutamate, 1 μM UBP310, n = 18",157% ± 7%
same,"maximal potentiation by zinc, % of control","[10]; 10 mM glutamate, Hill fit",286%
same,nH of zinc potentiation of GluK2/GluK3 currents,"[10]; 10 mM glutamate, Hill fit",0.6 and 0.6 ± 0.4
same,inhibition of GluK2/GluK3 currents by high zinc,[10]; zinc concentrations up to 1 mM,no inhibition
same,effect of zinc on glutamate currents,GluK2b(D729A) and GluK3,did not potentiate
same,effect of zinc on glutamate currents,GluK3(D730N),retained zinc potentiation
same,"current amplitude with zinc, % of control amplitude",GluK2(G758D),177% ± 7%
same,"current with zinc (inhibited), %",GluK3/K2S2,54% ± 6%
Cc1cn(C[C@H](N)C(=O)O)c(=O)n(Cc2ccsc2C(=O)O)c1=O [UBP310],inhibition of glutamate-activated currents,GluK2b(Q) and GluK3,55%
